Experimental data taken from US6872562B2, “Herbicide resistant dinitrogen fixing bacteria and method of use” (priority 2001, dated 2005).

Legend:
[1] = test system: GR soybean cultivar Terral TV5866RR; test: Greenhouse Example 1: biomass, nitrogen content and nodules of TV5866RR after postemergence glyphosate; assay type: in vivo, soybean (Glycine max); conditions: for Nodules per plant Run 1 / Individual nodule mass Run 2 / Nodules per plant Run 2 / Individual nodule mass Run 1: Harvest 2 (40 DAE)
Experimental: Seeds were planted in 15-cm pots with an approximate soil volume of 1.9 L. The potting medium was a nitrogen-free peat/vermiculite/perlite mixture (LB2, Sun Gro Horticulture Inc., 1830 Knob Hill, Garland, Tex. 75403). Soil was saturated with deionized (DI) water and then 500 mL of full-strength, nitrogen-free nutrient solution (de Silva et al., 1996) was added prior to planting. Pots were inoculated with approximately 1×10^7 cells of B. japonicum (USDA 110) at sowing. After emergence, plants were thinned to one per pot and reinoculated with B. japonicum. Plants were well watered by adding deionized (DI) water daily, and each pot received 250 mL of nitrogen-free nutrients weekly after emergence. Day and night temperatures were approximately 30 and 24 C, respectively, and natural illumination was supplemented with 1000 W metal-halide lamps for a day length of 16 h.
Each application was as a postemergence over-the-top spray to soybean plants using a moving-nozzle spray chamber. At each harvest, plants were separated into shoots, roots, and nodules. Nodules were photocopied, and total number of nodules per plant was determined from the photocopies. Plant sections were oven dried at 65 C for 48 h, weighed, and ground to pass a 1-mm sieve. Total nitrogen was determined for shoots and root plus nodule dry matter with a Leco FP-228 Determinator (Leco Corporation, St Joseph, Mich.) by the Agriculture Services Laboratory, University of Arkansas. The experiment consisted of six replications and was repeated. Seed for Run 1 and Run 2 of the experiment were planted on 25 February and 14 April, respectively. […] Treatment means were compared using Fisher's Protected least significant difference (LSD, P≦0.05).

[2] = test system: B. japonicum (strain USDA 110); test: Growth of B. japonicum in defined liquid media with glyphosate up to 10 mM (Example 6); assay type: cell-based; conditions: Bradyrhizobium japonicum, 216 h, read-out: Growth inhibition compared to the control without glyphosate
Experimental: The defined media consists of 25 mM arabinose as the carbon source, 15 mM (NH4)2SO4, 0.7 mM MgSO4, 0.4 mM CaCl2, 20 mM NaCl, 2.5 mM K2HPO4, and 40 mM MOPS (3-[N-morpholino]propane-sulfonic acid), at pH 6.8, plus the appropriate micronutrients. […] These colonies were removed and stored in frozen culture in 50% sterile glycerol.

[3] = Harvest 1 (19 DAE), averaged across runs
[4] = TV5866RR, Harvest 1 (19 DAE), early treatment
[5] = TV5866RR, Harvest 1 (19 DAE), early treatment: foliar 1.68 kg ha^−1 at 5 and 12 DAE

Compound: O=C(O)CNCP(=O)(O)O [glyphosate, N-(phosphonomethyl)glycine]
- Number of nodules per plant vs untreated ([1]; Harvest 1 (19 DAE)): no difference
- Nitrogen accumulation decrease in roots [1, 3]: 36%
- Nitrogen accumulation decrease in shoots [1, 3]: 34%
- Nodule mass effect ([1]; Harvest 1, Run 2, 19 DAE): not affected
- Total nodule weight decrease ([1]; Harvest 1, Run 1): 34%
- Nodules per plant Run 1 ([1]; Early treatment, Run 1): 138 number
- Individual nodule mass Run 2 ([1]; Early treatment, Run 2): 1.70 mg nodule^−1
- Nodules per plant Run 2 ([1]; Early treatment, Run 2): 256 number
- Individual nodule mass Run 1 ([1]; Early: 1.68 kg ha^−1 on 5 and 12 DAE, Run 1): 2.73 mg nodule^−1
- Nodules per plant Run 1 ([1]; Late treatment, Run 1): 150 number
- Individual nodule mass Run 2 ([1]; Late treatment, Run 2): 2.00 mg nodule^−1
- Nodules per plant Run 2 ([1]; Late treatment, Run 2): 209 number
- Individual nodule mass Run 1 ([1]; Late: 1.68 kg ha^−1 on 18, 25, and 32 DAE, Run 1): 2.79 mg nodule^−1
- Root biomass effect ([1]; TV5866RR, Harvest 1): not decreased
- Shoot biomass decrease ([1]; TV5866RR, Harvest 1 (19 DAE)): 17%
- Nitrogen Root [1, 4]: 4.2 mg plant^−1
- Nitrogen Shoot [1, 4]: 8.9 mg plant^−1
- Biomass Root [1, 5]: 0.17 g plant^−1
- Biomass Shoot [1, 5]: 0.40 g plant^−1
- Biomass Nodules Run 1 ([1]; TV5866RR, Harvest 1 (19 DAE), early treatment, Run 1): 0.043 g plant^−1
- Biomass Nodules Run 2 ([1]; TV5866RR, Harvest 1 (19 DAE), early treatment, Run 2): 0.088 g plant^−1
- Visual observation of plants ([1]; between 12 and 20 DAE): yellowed
- Effect on plant mass, plant color, or plant N content ([1]; by 40 DAE in Run 2): no apparent effect
- inhibition at 10000 µM [2]: ~90%
